Measured values from patent US20140069008A1, “PLANT C[…] UTILIZING PHOSPHITE AS A NUTRIENT AND AS A CONTROL AGENT FOR WEEDS AND ALGAE” (Centro de Investigacion y de Estudios Avanzados del …, priority 2010, published 2014).

Columns and labels:
[1] = test system: control seedlings (wild type, Col-0); test: Germination and growth of non-transformed seedlings in media lacking Pi, supplemented with Phi; format: in vivo, Arabidopsis
Method: To confirm that 35S::PTXD plants are capable of using Phi as a P source, seeds from transgenic lines and non-transformed siblings were germinated in media lacking Pi, and supplemented with Phi.
FIG. 5. Transgenic Arabidopsis plants expressing a phosphite oxidoreductase can use phosphite as a phosphorus source. (A) Comparative growth of seedlings from ptxDAt-3, -5 and -7 lines, and wild type (WT, Col-0) in solid media containing 1 mM phosphate (Pi) or 1 mM phosphite (Phi). (B) Transgenic Arabidopsis lines and WT control grown in vertical plates containing 1 mM Phi. (C) Transgenic and WT plants grown in a sterilized mixture of sand and vermiculite fertilized with Pi or Phi as phosphorus (P) source. Treatment without addition of a P source (NO P) was utilized as a control. A top view of WT plants in media containing 40 mg·kg^−1 Phi is included. Photographed plants are representative of two experiments with 8-10 plants/treatment/line each. The bar represents 5 cm to indicate scale.
FIG. 6. Growth of WT Arabidopsis and tobacco plants in phosphite-containing media. Comparative growth of Arabidopsis and tobacco non-transformed seedlings in media lacking a phosphorus (P) source supplemented with 1 mM or 0.005 mM phosphate (Pi) or 1 mM phosphite (Phi).

[2] = test system: ptxDNt plants (ptxDNt-80); test: Growth competition experiment, transgenic tobacco; format: in vivo, Nicotiana tabacum; conditions: Phi fertilization, competition with B. distachyon
Excerpt: (§1) In addition to the incapacity of plants to metabolize it, Phi acts as a potentially effective herbicide mainly by interfering with the signaling pathways that induce the rescue system activated in Pi-starved plants. Cultivation of transgenic plants expressing the ptxD gene, combined with Phi as a P fertilizer, could be an effective weed control system in soils with low Pi availability. To test this idea, we carried out growth competition experiments between ptxDNt plants and the grass weed False Brome (Brachypodium distachyon), using Phi or Pi as a P fertilizer. In unfertilized soil, both B. distachyon and tobacco plants had limited growth. When soil was fertilized with Pi, the growth of both species increased, with the grass showing faster growth than the tobacco plants.
(§2) For growth competition experiments, different proportions of seeds from ptxDNt-80 and the following weeds were utilized (transgenic:weed): Ipomoea purpurea (13:30), Brachiaria plantaginea (13:60), Amaranthus hybridus (5:15), Brachypodium distachyon (50:50). All seeds were sown in a tray containing a nonsterilized mixture of sand and vermiculite (2 kg for experiments with Amaranthus hybridus and 6 kg for the rest). […] Plants were harvested (at 54 day old for Brachiaria and Ipomoea or at 40 day old for A. hybridus experiments) for biomass quantification. […]

WT plants (tobacco) = test: Greenhouse growth in sterilized sand and vermiculite amended with Phi, WT tobacco; format: in vivo, Nicotiana tabacum L. cv Xanthi; conditions: substrate supplemented with Phi, after transplantation
Excerpt: (§3) To determine whether expression of the ptxD gene would enable other plant species more amenable for physiological and weed-control studies to use Phi as a P source, we generated transgenic tobacco plants harboring the 35S::PTXD construct (ptxDNt lines) (see FIG. 8). Transgenic and control seedlings were transferred to plastic bags containing a sterilized mixture of sand and vermiculite amended with either Phi or Pi as P source. […] Because the main negative effect in vitro of Phi on WT plants was on root growth, we also examined the root system of transgenic and control plants grown under different treatments. […] Transgenic plants fertilized with Phi quantitatively performed as well as WT and ptxDNt plants fertilized with Pi (see FIG. 10A).
For Arabidopsis greenhouse experiments, pots were filled with 0.3 kg of a sterilized mixture of sand and vermiculite (1:1) and mechanically mixed with either Pi (KH2PO4) or Phi (NaH2PO3.5H2O) at 10, 20, and 40 mg·kg^−1. […] At harvest, aerial parts of Arabidopsis (36 days old) and Tobacco (120 days old) plants were cut off at the soil surface and dried in a vacuum oven at 70° C. for biomass quantification. […] Photosynthesis rate was determined using a portable Li-6200 photosynthesis system (Li-Cor, Lincoln, Nebr., USA) on fully expanded, young leaves. Leaf area was calculated using the software ImageJ [35]. […]

[3] = test system: control plants (WT Arabidopsis); test: Greenhouse growth in sterilized sand and vermiculite supplemented with Phi, control plants; format: in vivo
Method: For Arabidopsis greenhouse experiments, pots were filled with 0.3 kg of a sterilized mixture of sand and vermiculite (1:1) and mechanically mixed with either Pi (KH2PO4) or Phi (NaH2PO3.5H2O) at 10, 20, and 40 mg·kg^−1. For tobacco experiments, 3 kg of the same substrate were weighed in black plastic bags amended with 20, 40, and 80 mg·kg^−1 of Pi or Phi. One plant per pot and 8-10 plants per line per treatment were included. Pots were arranged following a completely random design in the greenhouse. At harvest, aerial parts of Arabidopsis (36 days old) and Tobacco (120 days old) plants were cut off at the soil surface and dried in a vacuum oven at 70° C. for biomass quantification. In all cases, seeds were collected separately. Photosynthesis rate was determined using a portable Li-6200 photosynthesis system (Li-Cor, Lincoln, Nebr., USA) on fully expanded, young leaves. Leaf area was calculated using the software ImageJ [35].
FIG. 5. Transgenic Arabidopsis plants expressing a phosphite oxidoreductase can use phosphite as a phosphorus source. (A) Comparative growth of seedlings from ptxDAt-3, -5 and -7 lines, and wild type (WT, Col-0) in solid media containing 1 mM phosphate (Pi) or 1 mM phosphite (Phi). (B) Transgenic Arabidopsis lines and WT control grown in vertical plates containing 1 mM Phi. […]

ptxDNt plants = test: Greenhouse growth in sterilized sand and vermiculite amended with Phi, transgenic tobacco; format: in vivo, Nicotiana tabacum L. cv Xanthi
Excerpt: as §3
Pi is essential for CO2 fixation in the chloroplast, and plants suffering from Pi starvation have reduced levels of photosynthesis. […] When fertilized with either Pi or Phi, ptxDNt plants had rates of photosynthesis similar to those observed for control plants grown in Pi (see FIG. 10A). The effect on photosynthesis and root system development of control plants fertilized with Phi could not be evaluated because these plants died soon after transplantation.
For Arabidopsis greenhouse experiments, pots were filled with 0.3 kg of a sterilized mixture of sand and vermiculite (1:1) and mechanically mixed with either Pi (KH2PO4) or Phi (NaH2PO3.5H2O) at 10, 20, and 40 mg·kg^−1. […] At harvest, aerial parts of Arabidopsis (36 days old) and Tobacco (120 days old) plants were cut off at the soil surface and dried in a vacuum oven at 70° C. for biomass quantification. […] Photosynthesis rate was determined using a portable Li-6200 photosynthesis system (Li-Cor, Lincoln, Nebr., USA) on fully expanded, young leaves. Leaf area was calculated using the software ImageJ [35].
FIG. 10. […] Note that Phi was not detected either in leaf or floral tissues of ptxDNt-36 plants grown in a Phi-amended substrate. * Indicates measurements that are statistically different from the corresponding control (p<0.005).

[4] = test system: transgenic tobacco line ptxDNt-80; test: Cultivation of transgenic tobacco in non-sterilized acidic agricultural soil amended with phosphite; format: in vivo
Method: The results of Example 1 were obtained from greenhouse experiments with plants grown in a sterilized mixture of sand and vermiculite as the substrate. In contrast, the present example reports experiments performed in a greenhouse using a non-sterilized agricultural soil as a substrate, to determine whether the cultivation system disclosed herein works equally well with a natural substrate. Although the experiments were performed in a greenhouse, the agricultural soil was not sterilized and therefore contained soil organisms, such as bacteria and fungi, that live naturally in the soil.
An acidic agricultural soil was obtained from North Mexico. The soil has a low content of phosphorus, about 5 parts per million. The soil was used directly from the field, and was not sterilized. The soil is a sandy loam, composed of about 30% clay, 21% silt, and 49% sand, and is acidic, with a pH of 5.1. The soil has an electrical conductivity (milli-mhos per centimeter) of 0.20. The soil has 1.4% organic matter. Besides phosphorus, the soil has the following assimilable nutrients and minor elements (parts per million): nitrogen 5, potassium 100, iron 7, manganese 26, copper 0.2, and zinc 0.9. The soil has soluble cations and anions (milli-equivalents per liter) as follows: potassium 0.15, calcium 1.5, magnesium 0.5, sodium 0.5, bicarbonates 1.0, and chlorides 0.7.
A transgenic tobacco line, ptxDNt-80, was used for the experiments. The transgenic line has been modified genetically to express a bacterial phosphite oxidoreductase, namely, PtxD (SEQ ID NO:1). The soil was amended with 40, 60, or 80 parts per million of phosphorus by addition of phosphate or phosphite. Then, seeds from the transgenic and control lines were sowed on the soil. The growth of the transgenic line was measured at different days after germination.

[5] = test system: False Brome (Brachypodium distachyon); test: Growth competition experiment, weed; format: in vivo
Excerpt: as §1, §2

phosphite
growth of control seedlings [1]: completely arrested | increase of tobacco biomass with respect to Pi fertilization [2]: 865% | development of WT plants (WT plants (tobacco)): completely arrested their development and died a few days after transplantation | survival of control plants [3]: ≤ 20 days | total biomass difference versus plants under similar Pi regime (ptxDNt plants; 80 mg·kg^−1 of Phi, greater than Pi, statistically significant): 40% | total biomass versus plants under similar Pi regimes (ptxDNt plants; 20 and 40 mg·kg^−1 of Phi): slightly higher | rate of photosynthesis versus control plants grown in Pi (ptxDNt plants; fertilized with Phi): similar | more seeds than either line fertilized with the same amount of phosphate ([4]; 20 parts per million phosphite, four months after germination): 33% | height versus transgenic or control plants fertilized with phosphate ([4]; 68 or 74 days after germination): greater height | biomass of leaves and stems versus either line fertilized with phosphate ([4]; 80 parts per million phosphite, 75 days after germination): higher biomass | total production of capsules and seeds per plant versus either line fertilized with phosphate ([4]; four months after germination): similar | decrease of weed biomass with respect to Pi fertilization ([5]; Phi fertilization, competition with ptxDNt tobacco): 90% | time at which weed growth was completely arrested ([5]; Phi used as fertilizer): 15-20 days after sowing
